We go through eleven molecules from ChEMBL document CHEMBL1201862, “PubChem BioAssay data set” (2004).

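In this assay, cells in 96-well plates receive the compound at five concentrations for 48 hours. Endpoints are linearly interpolated between the surrounding concentrations. Abbreviation: GI50, concentration required for 50% inhibition of growth.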 The source made the active and inactive calls. No stated cut-off is given here; in the data, active = GI50 up to about 1.1 µM and inactive = higher.

Some test systems named below: MDA-MB-231; DU-145; MCF7; CAKI-1; MDA-MB-435; SN12C; SF-268; T47D; HL-60; PC-3; HCT-116; Malme-3M; IGROV-1; NCI-H460; CCRF-CEM; NCI-H522; K562; LOX IMVI; SF-539; RPMI-8226.
What all share (assay): DTP human tumour cell line panel, 48 h

`CN(C)CCCn1c(Cn2nc3ccccc3n2)nc2cc(C(F)(F)F)ccc21`: the GI50 (in general, the concentration that inhibits growth by half) was 28.9 µM (inactive) in the test with MDA-MB-231; 29.7 µM (inactive) in the test on DU-145; 22 µM (inactive) with MCF7; 32.6 µM (inactive) in the test on CAKI-1; 16.5 µM (inactive) in the test with MDA-MB-435; 47.8 µM (inactive) in the test with SN12C. In addition, the GI50 in the test with SF-268 is 42 µM (inactive); in the test with T47D, 15.2 µM (inactive); with HL-60, 1.69 µM (inactive); with PC-3, 31.6 µM (inactive); with HCT-116, 36 µM (inactive); in the test with Malme-3M, 11.6 µM (inactive). Moreover, the GI50 is 29 µM (inactive) with IGROV-1; 26.4 µM (inactive) with NCI-H460; 13.2 µM (inactive) in the test on CCRF-CEM; 14.6 µM (inactive) with NCI-H522; 16.5 µM (inactive) in the test with K562; 16.9 µM (inactive) with LOX IMVI.
As to `O=C(NO)c1ccc(OCc2cccc(Cl)c2)cc1`, the GI50 with MDA-MB-231 is 12.1 µM (inactive); in the test on DU-145, 7.59 µM (inactive); with MCF7 it was 12.7 µM (inactive); in the test with CAKI-1 it was 6.65 µM (inactive); with MDA-MB-435 it was 6.67 µM (inactive); in the test on SN12C it was 8.89 µM (inactive). Moreover, the GI50 was 10.7 µM (inactive) in the test on SF-268; 6.97 µM (inactive) in the test with T47D; 2.47 µM (inactive) in the test with HL-60; 6.64 µM (inactive) in the test with PC-3; 8.11 µM (inactive) with SF-539; 2.22 µM (inactive) with HCT-116. Also, the GI50 was 6.67 µM (inactive) with IGROV-1; 4.58 µM (inactive) in the test on NCI-H460; 2.66 µM (inactive) with CCRF-CEM; 3.27 µM (inactive) in the test on NCI-H522; 7.96 µM (inactive) with K562; 3.27 µM (inactive) in the test on RPMI-8226. Further, the GI50 with LOX IMVI was 5.07 µM (inactive).
For `CC1=Nc2sc3c(c2C2=NCCN12)CCCC3`, the GI50 in the test with MDA-MB-231 is 33.3 µM (inactive); with DU-145 it was 30.5 µM (inactive); in the test with MCF7 it was 23.7 µM (inactive); in the test on CAKI-1 it was 22.9 µM (inactive); with MDA-MB-435, 34 µM (inactive); in the test with SN12C it was 29.9 µM (inactive). Further, the GI50 is 52.2 µM (inactive) with SF-268; 32.7 µM (inactive) in the test on T47D; 22.8 µM (inactive) in the test on HL-60; 20 µM (inactive) with PC-3; 20.9 µM (inactive) in the test with HCT-116; 25.7 µM (inactive) in the test with Malme-3M. The GI50 is 18.3 µM (inactive) with IGROV-1; 19.7 µM (inactive) with NCI-H460; 19.5 µM (inactive) in the test on NCI-H522; 23.6 µM (inactive) in the test on K562; 19.8 µM (inactive) in the test with RPMI-8226; 17.6 µM (inactive) in the test with LOX IMVI.
`Cc1ccc([Se](=C(C(=O)c2ccccc2)C(=O)c2ccccc2)c2ccc(C)cc2)cc1`: the GI50 in the test with MDA-MB-231 was 15.8 µM (inactive); in the test with DU-145, 38.7 µM (inactive); in the test with MCF7, 26.7 µM (inactive); in the test with CAKI-1 it was 19.5 µM (inactive); in the test with MDA-MB-435, 20.5 µM (inactive); in the test on SN12C it was 12.8 µM (inactive). The GI50 is 35.3 µM (inactive) in the test with SF-268; 34.3 µM (inactive) in the test on T47D; 21.3 µM (inactive) in the test with HL-60; 23.3 µM (inactive) in the test on PC-3; 25.6 µM (inactive) in the test with SF-539; 34.4 µM (inactive) with HCT-116. The GI50 with Malme-3M is 18.4 µM (inactive); in the test with IGROV-1 it was 19.6 µM (inactive); with NCI-H460, 25.5 µM (inactive); with NCI-H522, 22.1 µM (inactive); in the test with K562 it was 28.8 µM (inactive); in the test with RPMI-8226, 4.14 µM (inactive).
With `c1cncc(C(Nc2cccc3cccnc23)Nc2cccc3cccnc23)c1`, the GI50 in the test with MDA-MB-231 was > 100 µM (inactive); with DU-145 it was > 100 µM (inactive); in the test on MCF7 it was > 100 µM (inactive); with CAKI-1, 53 µM (inactive); with MDA-MB-435, > 100 µM (inactive); in the test on SN12C, > 100 µM (inactive). Besides, the GI50 in the test on SF-268 is 50.5 µM (inactive); in the test with T47D, > 100 µM (inactive); with HL-60 it was 36.3 µM (inactive); in the test on PC-3, > 100 µM (inactive); with SF-539 it was > 100 µM (inactive); in the test on HCT-116 it was > 100 µM (inactive). Further, the GI50 in the test on IGROV-1 is > 100 µM (inactive); in the test on NCI-H460 it was > 100 µM (inactive); in the test with CCRF-CEM, 66.1 µM (inactive); in the test on NCI-H522 it was 28.8 µM (inactive); in the test with K562, > 100 µM (inactive); in the test on RPMI-8226, 55.8 µM (inactive). The GI50 with LOX IMVI is > 100 µM (inactive).
Turning to `CC(=O)O[C@H]1C(=O)[C@@]2(C)[C@H]([C@H](OC(=O)c3ccc([N+](=O)[O-])cc3)[C@]3(O)C[C@H](OC(=O)[C@H](O)[C@@H](NC(=O)c4ccccc4)c4ccccc4)C(C)=C1C3(C)C)[C@]1(OC(C)=O)CO[C@@H]1C[C@@H]2O`, the GI50 in the test on MDA-MB-231, in the test with DU-145, in the test with MCF7, with CAKI-1, with MDA-MB-435 and in the test with SN12C was > 25 µM (inactive) throughout. The GI50 in the test with SF-268, with T47D, in the test on HL-60, with PC-3, with SF-539 and in the test on HCT-116 was > 25 µM (inactive) throughout. In addition, the GI50 in the test with Malme-3M, with IGROV-1, with NCI-H460, with CCRF-CEM, in the test with NCI-H522 and in the test on K562 was > 25 µM (inactive) in each case. In the test on RPMI-8226, the GI50 was > 25 µM (inactive).
Regarding `CCOC(=O)c1cc(=O)c2ccnc3c2n1CCS3`, the GI50 in the test on MDA-MB-231, with DU-145, in the test with MCF7, in the test with CAKI-1, in the test on MDA-MB-435 and in the test with SN12C was > 100 µM (inactive) in each case. Besides, the GI50 with SF-268 is > 100 µM (inactive); with T47D, 17.6 µM (inactive); with HL-60, > 100 µM (inactive); with PC-3, > 100 µM (inactive); with SF-539, > 100 µM (inactive); with HCT-116, > 100 µM (inactive). Besides, the GI50 was 40.6 µM (inactive) with IGROV-1; > 100 µM (inactive) in the test on NCI-H460; 48.5 µM (inactive) with CCRF-CEM; 22.7 µM (inactive) in the test on NCI-H522; 57.4 µM (inactive) in the test with LOX IMVI.
Turning to `COc1ccc2c(C=O)c3n(c(=O)c2c1OC)CCc1cc2c(cc1-3)OCO2`, the GI50 was > 100 µM (inactive) in the test with MDA-MB-231; 78.3 µM (inactive) in the test with DU-145; 21.8 µM (inactive) in the test with MCF7; > 100 µM (inactive) in the test on CAKI-1; 22.5 µM (inactive) in the test on MDA-MB-435; 41.3 µM (inactive) in the test on SN12C. For the same molecule, the GI50 is > 100 µM (inactive) in the test with SF-268; 10.8 µM (inactive) in the test on T47D; 29.7 µM (inactive) with HL-60; 15.1 µM (inactive) with PC-3; > 100 µM (inactive) in the test on SF-539; 26.3 µM (inactive) with HCT-116. Besides, the GI50 in the test on Malme-3M was 80 µM (inactive); with IGROV-1, 56.6 µM (inactive); in the test on NCI-H460 it was 53.6 µM (inactive); with CCRF-CEM, > 100 µM (inactive); in the test with NCI-H522, 30.4 µM (inactive); in the test with RPMI-8226, 3.68 µM (inactive).
`CCCCOC(=O)NC(c1ccccc1)C(O)C(=O)OC1C[C@@]2(O)C(OC(=O)c3ccccc3)C3[C@](C)(C(=O)[C@H](OC(C)=O)C(=C1C)C2(C)C)[C@@H](O)C[C@H]1OC[C@@]31OC(C)=O` (stereo not given in full): the GI50 was 0.034 µM (active) with MDA-MB-231; 0.0125 µM (active) in the test with DU-145; 0.00248 µM (active) in the test on MCF7; 0.00224 µM (active) in the test on MDA-MB-435; 0.0157 µM (active) in the test on SN12C; 0.0113 µM (active) in the test with SF-268. Besides, the GI50 in the test on T47D was 0.175 µM (active); in the test with HL-60, 0.00345 µM (active); with PC-3 it was 0.0171 µM (active); in the test with SF-539, 0.00305 µM (active); in the test on HCT-116 it was 0.00216 µM (active); in the test on IGROV-1, 0.00405 µM (active). For the same molecule, the GI50 is 0.002 µM (active) with NCI-H460; 0.00425 µM (active) in the test with CCRF-CEM; 0.00234 µM (active) in the test with NCI-H522; 0.00447 µM (active) with K562; 0.00377 µM (active) in the test on RPMI-8226; 0.00427 µM (active) with LOX IMVI.
As for `O=C(CCc1ccc(O)c(O)c1)NCCc1cc(O)cc(OCc2ccccc2)c1`, the GI50 was 27.2 µM (inactive) in the test with MDA-MB-231; 43.3 µM (inactive) in the test on DU-145; 26.9 µM (inactive) in the test on MCF7; 12.6 µM (inactive) in the test with CAKI-1; 27.2 µM (inactive) in the test on MDA-MB-435; 24.9 µM (inactive) with SN12C. Also, the GI50 in the test on SF-268 was 31.4 µM (inactive); with T47D, 15.3 µM (inactive); in the test with HL-60, 10.9 µM (inactive); in the test with PC-3, 31.9 µM (inactive); in the test on SF-539 it was 27.2 µM (inactive); in the test with HCT-116 it was 33.5 µM (inactive). Moreover, the GI50 in the test on IGROV-1 was 39.1 µM (inactive); in the test with NCI-H460 it was 22.2 µM (inactive); in the test on CCRF-CEM it was 6.87 µM (inactive); in the test on NCI-H522 it was 5.14 µM (inactive); with K562, 37 µM (inactive); in the test with RPMI-8226, 9.04 µM (inactive). Moreover, the GI50 in the test with LOX IMVI was 26.3 µM (inactive).
On to `COC(=O)c1cc2c3c(ccc2[nH]1)N(C(=O)c1cc2cc(OC)c(OC)c(OC)c2[nH]1)CC3CCl` (stereo not given), for which the GI50 in the test on MDA-MB-231 is > 100 µM (inactive); in the test on DU-145, 6.44 µM (inactive); in the test with MCF7, 3.94 µM (inactive); in the test on MDA-MB-435, 13.7 µM (inactive); in the test with SF-268 it was > 100 µM (inactive); in the test on T47D, > 100 µM (inactive). The GI50 in the test on HL-60 is 1.48 µM (inactive); with PC-3, 4.31 µM (inactive); in the test on SF-539, > 34.8 µM (inactive); in the test on HCT-116, 4.46 µM (inactive); in the test on Malme-3M, 8.59 µM (inactive); in the test with IGROV-1, 7.87 µM (inactive). Moreover, the GI50 in the test on NCI-H460 was 2.79 µM (inactive); with CCRF-CEM it was 5.98 µM (inactive); in the test with NCI-H522 it was 2.9 µM (inactive); in the test with RPMI-8226, 1.69 µM (inactive); in the test on LOX IMVI it was 4.98 µM (inactive).
